Measurements as given in patent publication US20140120060A1, “TREATMENT OF RHEUMATOID ARTHRITIS AND ASTHMA USING PI3 KINASE INHIBITORS” (INFINITY PHARMACEUTICALS, INC., priority 2012, published 2014).

system: B cell; test: B cell proliferation; assay type: cell-based

SMILES | EC50 [nM]
CC(=O)Nc1nc2ccc(-c3nn(Cc4cc5cccc(C)c5c(=O)n4C)c4ncnc(N)c34)cc2s1 [Compound 153] | < 100
Cc1ccccc1-n1c(Cn2nc(-c3ccc4nc(N)ccc4c3)c3c(N)ncnc32)cc2cccc(C)c2c1=O [Compound 149] | < 100
Cc1ccccc1-n1c(Cn2nc(-c3ccc4nc(N)[nH]c4c3)c3c(N)ncnc32)cc2cccc(C)c2c1=O [Compound 295] | < 100
CC(=O)Nc1nc2ccc(-c3nn(Cc4cc5cccc(C)c5c(=O)n4C4CC4)c4ncnc(N)c34)cc2s1 [Compound 155] | < 100
Cc1cccc2cc([C@H](C)Nc3nc(F)nc4[nH]cnc34)n(-c3ccccc3)c(=O)c12 [Compound 245] | < 100
CCn1c(Cn2nc(-c3cccc(O)c3)c3c(N)ncnc32)cc2cccc(C)c2c1=O [Compound 126] | < 100
Cc1cccc2cc(Cn3nc(-c4cccc(O)c4)c4c(N)ncnc43)n(-c3ccccc3)c(=O)c12 [Compound 146] | < 100
Cc1cccnc1-n1c(Cn2nc(-c3cc(O)cc(F)c3)c3c(N)ncnc32)cc2ccccc2c1=O [Compound 93] | < 100
Cc1cccc2cc(Cn3nc(-c4ccc5nc(N)oc5c4)c4c(N)ncnc43)n(-c3ccccc3)c(=O)c12 [Compound 235] | < 10000
Cc1ccccc1-n1c(Cn2nc(-c3ccc4nc(N)sc4c3)c3c(N)ncnc32)cc2cccc(C)c2c1=O [Compound 145] | < 1000
Cc1cccc2cc([C@H](C)Nc3nc(Cl)ncc3Cl)n(-c3ccccc3)c(=O)c12 [Compound 248] | < 100
Cc1ccccc1-n1c(Cn2nc(-c3ccc4sc(N)nc4c3)c3c(N)ncnc32)cc2cccc(C)c2c1=O [Compound 276] | < 100
Cc1cccc2cc(Cn3nc(-c4cc(O)cc(F)c4)c4c(N)ncnc43)n(C3CCOCC3)c(=O)c12 [Compound 128] | < 100
Cc1cccc2cc([C@H](C)Nc3ncnc4[nH]cc(F)c34)n(-c3ccccc3)c(=O)c12 [Compound 254] | < 100
Cc1ccccc1-n1c(Cn2nc(C(F)F)c3c(N)ncnc32)cc2cccc(C)c2c1=O [Compound 306] | < 100
Cc1cccc2cc(Cn3nc(C#CCO)c4c(N)ncnc43)n(-c3ccccc3F)c(=O)c12 [Compound 8] | < 1000
Cc1ccccc1-n1c(Cn2nc(C#CCO)c3c(N)ncnc32)cc2cccc(C)c2c1=O [Compound 11] | < 1000
Cc1ccccc1-n1c(Cn2nc(-c3cn[nH]c3)c3c(N)ncnc32)cc2ccccc2c1=O [Compound 187] | < 100
CCC(Nc1ncnc2[nH]cnc12)c1cc2cccc(C)c2c(=O)n1C1CCC1 (stereo not drawn) [Compound 212] | < 1000
COc1cc(-c2nn(Cc3cc4cccc(C)c4c(=O)n3-c3ccccc3C)c3ncnc(N)c23)ccc1Cl [Compound 21] | < 1000
CC(Nc1ncnc2[nH]cnc12)c1cc2cccc(Cl)c2c(=O)n1-c1ccccc1 (stereo not drawn) [Compound 237] | < 100
CC(=O)Nc1nc2ccc(-c3nn(Cc4cc5cccc(C)c5c(=O)n4-c4cccc(F)c4)c4ncnc(N)c34)cc2s1 [Compound 178] | < 100
Cc1cccc2cc(Cn3nc(-c4cc(O)cc(F)c4)c4c(N)ncnc43)n(C(C)C)c(=O)c12 [Compound 66] | < 100
Cc1cccc2cc(Cn3nc(-c4ccc(Cl)c(O)c4)c4c(N)ncnc43)n(-c3ccccc3F)c(=O)c12 [Compound 24] | < 1000
Cc1ccccc1-n1c(Cn2nc(-c3cn[nH]c3)c3c(N)ncnc32)cc2cccc(C)c2c1=O [Compound 160] | < 100

SMILES | EC50 [nM]
COc1cccc(-c2nn(Cc3cc4cccc(C)c4c(=O)n3-c3ccccc3C)c3ncnc(N)c23)c1 [Compound 106] | < 1000
Cc1cccc2cc(C(C)Nc3ncnc4[nH]cnc34)n(-c3cccc(F)c3)c(=O)c12 (stereo not drawn) [Compound 229] | < 100
Cc1ccccc1-n1c(Cn2nc(-c3cnn(CCO)c3)c3c(N)ncnc32)cc2cccc(C)c2c1=O [Compound 163] | < 1000
CCc1ccccc1-n1c(Cn2nc(-c3cn[nH]c3)c3c(N)ncnc32)cc2cccc(C)c2c1=O [Compound 190] | < 100
Cc1cccc2cc([C@H](C)Nc3ncnc4[nH]ccc34)n(-c3ccccc3)c(=O)c12 [Compound 247] | < 100
Cc1ccccc1-n1c(Cn2nc(-c3ccc(O)c(Cl)c3)c3c(N)ncnc32)cc2cccc(C)c2c1=O [Compound 25] | < 1000
Cc1cccc2cc([C@@H](C)Nc3ncnc4[nH]cnc34)n(-c3ccccc3)c(=O)c12 [Compound 195] | < 1000
Cc1cccc2cc(Cn3nc(-c4ccc(O)cc4)c4c(N)ncnc43)n(-c3ccccc3F)c(=O)c12 [Compound 46] | < 1000
Cc1cccc2cc(C(C)Nc3ncnc4[nH]cnc34)n(C3CCN(C)CC3)c(=O)c12 (stereo not drawn) [Compound 227] | < 100
CCn1c(Cn2nc(-c3ccc4nc(NC(C)=O)sc4c3)c3c(N)ncnc32)cc2cccc(C)c2c1=O [Compound 176] | < 100
Cc1cccc2cc(Cn3nc(C#N)c4c(N)ncnc43)n(-c3ccccc3F)c(=O)c12 [Compound 169] | < 1000
Cc1ccccc1-n1c(Cn2nc(-c3ccc4nc(N)ncc4c3)c3c(N)ncnc32)cc2cccc(C)c2c1=O [Compound 150] | < 100
Cc1cccc2cc(C(C)Nc3ncnc4[nH]cnc34)n(C3CCCC3)c(=O)c12 (stereo not drawn) [Compound 231] | < 100
Cc1ccccc1-n1c(Cn2nc(/C=C3/SC(=O)NC3=O)c3c(N)ncnc32)cc2cccc(C)c2c1=O [Compound 173] | < 100
Cc1cccc2cc(Cn3nc(-c4cc(O)cc(F)c4)c4c(N)ncnc43)n(C3CCCCC3)c(=O)c12 [Compound 110] | < 1000
Cc1cccc2cc(Cn3nc(-c4ccc(Cl)c(O)c4)c4c(N)ncnc43)n(C(C)C)c(=O)c12 [Compound 123] | < 100
Cc1ccccc1-n1c(Cn2nc(-c3ccc4oc(N)nc4c3)c3c(N)ncnc32)cc2cccc(C)c2c1=O [Compound 151] | < 100
CC(C)n1c(Cn2nc(-c3cc(O)cc(F)c3)c3c(N)ncnc32)cc2ccccc2c1=O [Compound 136] | < 100
Cc1cccc2cc(Cn3nc(I)c4c(N)ncnc43)n(C3CCCCC3)c(=O)c12 [Compound 87] | < 10000
CC(C)n1c(Cn2nc(-c3cc(O)cc(F)c3)c3c(N)ncnc32)cc2cccc(F)c2c1=O [Compound 134] | < 100
Cc1ccncc1-n1c(Cn2nc(I)c3c(N)ncnc32)cc2cccc(C)c2c1=O [Compound 78] | < 1000
Cc1cccc2cc(C(C)Nc3ncnc4[nH]cnc34)n(C3CC3)c(=O)c12 (stereo not drawn) [Compound 204] | < 100
Cc1cccc2cc(C(C)Nc3ncnc4[nH]cnc34)n(-c3cc(F)cc(F)c3)c(=O)c12 (stereo not drawn) [Compound 222] | < 100
C[C@H](Nc1ncnc2[nH]cnc12)c1cc2cccc(Cl)c2c(=O)n1C1CC1 [Compound 270] | < 100
CC(=O)Nc1nc2ccc(-c3nn(Cc4cc5cccc(Cl)c5c(=O)n4C(C)C)c4ncnc(N)c34)cc2s1 [Compound 157] | < 100

SMILES | EC50 [nM]
Cc1cccc2cc(Cn3nc(CF)c4c(N)ncnc43)n(-c3ccccc3)c(=O)c12 [Compound 311] | < 100
CCc1nn(Cc2cc3cccc(C)c3c(=O)n2-c2ccccc2C)c2ncnc(N)c12 [Compound 294] | < 1000
Cc1cccc2cc(Cn3nc(-c4cc(O)cc(F)c4)c4c(N)ncnc43)n(-c3ccccc3OCCN3CCOCC3)c(=O)c12 [Compound 108] | < 100
Cc1cccc2cc(Cn3nc(-c4cc(O)cc(F)c4)c4c(N)ncnc43)n(-c3ccccc3C(C)C)c(=O)c12 [Compound 95] | < 100
Cc1cccc2cc(C(C)Nc3ncnc4[nH]cnc34)n(C3CCC3)c(=O)c12 (stereo not drawn) [Compound 215] | < 100
Cc1cccc2cc(Cn3nc(-c4cc(O)cc(F)c4)c4c(N)ncnc43)n(C3CCC3)c(=O)c12 [Compound 115] | < 100
Cc1cccc2cc([C@H](C)Nc3ncnc4[nH]cnc34)n(C3CCC3)c(=O)c12 [Compound 198] | < 100
Cc1cccc2cc(Cn3nc(-c4cc(O)cc(F)c4)c4c(N)ncnc43)n(-c3ccccc3Cl)c(=O)c12 [Compound 97] | < 100
Cc1ccccc1-n1c(Cn2nc(C#CC3CC3)c3c(N)ncnc32)cc2cccc(C)c2c1=O [Compound 14] | < 1000
CCC(Nc1ncnc2[nH]cnc12)c1cc2cccc(C)c2c(=O)n1C1CCN(C)CC1 (stereo not drawn) [Compound 228] | < 100
Nc1ncnc2c1c(-c1cccc(O)c1)nn2Cc1cc2cccc(Cl)c2c(=O)n1C1CC1 [Compound 141] | < 100
Nc1ncnc2c1c(I)nn2Cc1cc2cccc(Cl)c2c(=O)n1C1CC1 [Compound 139] | < 100
Cc1ccccc1-n1c(Cn2nc(-c3cccc(O)c3)c3c(N)nccc32)cc2cccc(C)c2c1=O [Compound 119] | < 1000
Cc1cccc2cc(Cn3nc(-c4cccc(O)c4)c4c(N)ncnc43)n(C3CCCCC3)c(=O)c12 [Compound 111] | < 1000
Cc1cccc2cc([C@@H](C)Nc3ncnc4[nH]cnc34)n(C3CCC3)c(=O)c12 [Compound 197] | < 10000
Cc1ccccc1-n1c(Cn2nc(C#C[C@@H](C)O)c3c(N)ncnc32)cc2cccc(C)c2c1=O [Compound 37] | < 100
Cc1ccccc1-n1c(Cn2nc(-c3nn[nH]n3)c3c(N)ncnc32)cc2cccc(C)c2c1=O [Compound 207] | < 10000
COc1ccc(-c2nn(Cc3cc4cccc(C)c4c(=O)n3-c3ccccc3C)c3ncnc(N)c23)cc1OC [Compound 44] | < 100
CC(=O)Nc1nc2ccc(-c3nn(Cc4cc5cccc(Cl)c5c(=O)n4C4CC4)c4ncnc(N)c34)cc2s1 [Compound 156] | < 100
Cc1cccc2cc(Cn3nc(-c4cc(O)cc(F)c4)c4c(N)ncnc43)n(C)c(=O)c12 [Compound 125] | < 100
Cc1cccc2cc(Cn3nc(I)c4c(N)ncnc43)n(C)c(=O)c12 [Compound 107] | < 1000
Cc1cccc2cc(Cn3nc(I)c4c(N)ncnc43)n(-c3ccccc3C(C)C)c(=O)c12 [Compound 75] | < 100
Cc1cccc2cc([C@H](C)Nc3ncnc4[nH]cc(C#N)c34)n(C3CC3)c(=O)c12 [Compound 289] | < 100
COc1ccc(-c2nn(Cc3cc4cccc(C)c4c(=O)n3-c3ccccc3F)c3ncnc(N)c23)cc1OC [Compound 47] | < 1000
Cc1cccc2cc(Cn3nc(-c4ccc5oc(N)nc5c4)c4c(N)ncnc43)n(-c3ccccc3)c(=O)c12 [Compound 205] | < 100
